Data published in patent US7829572B2 (Pfizer Inc, priority 2006, dated 2010).

Molecular target: T1, calcium receptor (CasR) (Homo sapiens, UniProt P41180)
T1 construct: expressed in transfected cells; host or cells: HEK 293
T1 sequence (P41180 20-1078): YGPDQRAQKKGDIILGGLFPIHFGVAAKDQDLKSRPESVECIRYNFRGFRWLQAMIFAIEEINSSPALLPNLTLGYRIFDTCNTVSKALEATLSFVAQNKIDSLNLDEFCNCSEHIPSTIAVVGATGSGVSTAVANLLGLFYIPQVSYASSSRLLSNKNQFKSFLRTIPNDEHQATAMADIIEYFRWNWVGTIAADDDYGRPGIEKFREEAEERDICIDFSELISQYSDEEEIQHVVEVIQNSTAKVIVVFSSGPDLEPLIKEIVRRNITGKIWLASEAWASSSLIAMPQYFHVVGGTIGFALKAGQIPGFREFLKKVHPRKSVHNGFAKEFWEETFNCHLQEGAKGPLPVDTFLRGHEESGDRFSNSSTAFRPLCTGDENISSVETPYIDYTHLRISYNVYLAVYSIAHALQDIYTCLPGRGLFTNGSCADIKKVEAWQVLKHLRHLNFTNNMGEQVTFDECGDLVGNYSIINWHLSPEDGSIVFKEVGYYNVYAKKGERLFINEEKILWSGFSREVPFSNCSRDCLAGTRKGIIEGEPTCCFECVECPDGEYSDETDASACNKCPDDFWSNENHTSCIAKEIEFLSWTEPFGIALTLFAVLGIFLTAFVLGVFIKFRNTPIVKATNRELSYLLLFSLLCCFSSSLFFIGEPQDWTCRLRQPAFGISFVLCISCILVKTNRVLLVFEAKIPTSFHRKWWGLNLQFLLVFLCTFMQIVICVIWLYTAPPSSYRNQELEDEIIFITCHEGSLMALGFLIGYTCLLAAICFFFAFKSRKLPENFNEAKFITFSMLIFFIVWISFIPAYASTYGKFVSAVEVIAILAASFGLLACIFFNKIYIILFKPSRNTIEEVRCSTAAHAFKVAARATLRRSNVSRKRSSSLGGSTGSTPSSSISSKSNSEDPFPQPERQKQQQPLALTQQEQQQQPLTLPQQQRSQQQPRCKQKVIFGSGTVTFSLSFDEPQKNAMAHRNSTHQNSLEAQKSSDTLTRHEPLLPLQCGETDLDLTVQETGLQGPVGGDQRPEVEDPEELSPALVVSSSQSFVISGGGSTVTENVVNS
Experiment: FLIPR Assay for Evaluating the Potency and Selectivity of Test Compounds
Assay type: cell-based
Settings: HEK 293 cells expressing CasR; 30 minutes pre-incubation; stimulation by 1.7 mM Ca2+; read 42 seconds after stimulation
From the text: FLIPR Assay for Evaluating the Potency and Selectivity of Test Compounds
Human kidney cell (HEK 293) expressing the calcium receptor (CasR) are used to detect antagonists of the receptor using Fluorometric imaging plate reader (FLIPR, Molecular Devices, Sunnyvale Calif.). Receptor activation by extracellular calcium results in the release of calcium from intracellular stores into the cytosol. A fluorescent indicator (Fluo-4) is internalized by the cells from growth media and interacts with calcium released into the cytosol to provide a means of quantifying intracellular Ca^2+ levels and receptor agonism/antagonism. Fluorescence intensity is detected by the FLIPR CCD camera and traced as a function of time. Potential antagonists are identified by their ability to decrease this fluorescent response.
Prior to the addition of test compound cells are washed with a 10 mM HEPES buffer solution. The test compound, for example the compound of Example 1, is added at various doses (from 1 µM to 3 nM) and pre-incubated with cells for 30 minutes followed by stimulation of the CasR by the addition of 1.7 mM Ca^2+. IC50 values are based on the ability of the cells to inhibit the Ca^2+ induced increase in intracellular Ca^2+. Fluorescence signal is read 42 seconds after the stimulation of the CasR by the addition of 1.7 mM Ca^2+.
The following table provides FLIPR IC50 data for the specified Examples. The IC50s are reported as micromolar concentration with n being the number of times the particular compound was assayed.

| IC50 | SMILES |
| --- | --- |
| 2.44 µM | CCC(Cc1ccccc1F)n1c(-c2ncccc2O)nc2ccnc(C(F)(F)F)c2c1=O (stereo not shown) [Example 44, 3-(1-(2-fluorophenyl)butan-2-yl)-2-(3-hydroxypyridin-2-yl)-5-(trifluoromethyl)pyrido[4,3-d]pyrimidin-4(3H)-one] |
| 0.39 µM | O=c1c2c(C(F)(F)F)nccc2nc(-c2ccccc2C(F)F)n1CCc1ccccc1 [Example 79, 2-(2-(difluoromethyl)phenyl)-3-phenethyl-5-(trifluoromethyl)pyrido[4,3-d]pyrimidin-4(3H)-one] |
| 0.23 µM | CC(=O)Nc1cccnc1-c1nc2ccnc(C(F)(F)F)c2c(=O)n1CCc1ccccc1F [Example 52, N-(2-(3-(2-fluorophenethyl)-4-oxo-5-(trifluoromethyl)-3,4-dihydropyrido[4,3-d]pyrimidin-2-yl)pyridin-3-yl)acetamide] |
| 1.4 µM | CC(Cc1ccccc1F)n1c(-c2ncccc2O)nc2ccnc(C(F)(F)F)c2c1=O (single isomer, unassigned) [Example 6b, 2-(3-Hydroxy-pyridin-2-yl)-3-(1-methyl-2-(2-fluorophenyl)ethyl)-5-trifluoromethyl-3H-pyrido[4,3-d]pyrimidin-4-one] |
| 13.8 µM | CN(C)c1nccc2nc(-c3ccccc3O)n(CCc3ccccc3)c(=O)c12 [Example 21, 5-Dimethylamino-2-(2-hydroxy-phenyl)-3-phenethyl-3H-pyrido[4,3-d]pyrimidin-4-one] |
| 4.68 µM | CC(C)c1nc2ccnc(C(F)(F)F)c2c(=O)n1CCc1ccccc1 [Example 58, 2-isopropyl-3-phenethyl-5-(trifluoromethyl)pyrido[4,3-d]pyrimidin-4(3H)-one] |
| 0.71 µM | O=c1c2c(C(F)(F)F)nccc2nc(-c2cscn2)n1CCc1ccccc1 [Example 54, 3-phenethyl-2-(thiazol-4-yl)-5-(trifluoromethyl)pyrido[4,3-d]pyrimidin-4(3H)-one] |
| 0.16 µM | C[C@H](CC1CCCCC1)n1c(-c2ncccc2O)nc2ccnc(C(F)(F)F)c2c1=O [Example 48a, (R)-3-(1-cyclohexylpropan-2-yl)-2-(3-hydroxypyridin-2-yl)-5-(trifluoromethyl)pyrido[4,3-d]pyrimidin-4(3H)-one] |
| > 100 µM | O=c1c2c(N3CCOCC3)nccc2nc(-c2ccccc2O)n1CCc1ccccc1 [Example 22, 2-(2-Hydroxy-phenyl)-5-morpholin-4-yl-3-phenethyl-3H-pyrido[4,3-d]pyrimidin-4-one] |
| 10.8 µM | CNc1nccc2nc(-c3ccccc3O)n(CCc3ccccc3)c(=O)c12 [Example 16, 2-(2-Hydroxy-phenyl)-5-methylamino-3-phenethyl-3H-pyrido[4,3-d]pyrimidin-4-one] |
| 0.03 µM | C[C@H](Cc1ccccc1)n1c(-c2cccc(F)c2O)nc2ccnc(C(F)(F)F)c2c1=O [Example 50, (R)-2-(3-fluoro-2-hydroxyphenyl)-3-(1-phenylpropan-2-yl)-5-(trifluoromethyl)pyrido[4,3-d]pyrimidin-4(3H)-one] |
| 0.008 µM | C[C@H](Cc1ccc(F)c(F)c1)n1c(-c2ncccc2O)nc2ccnc(C(F)(F)F)c2c1=O [Example 37a, (R)-3-(1-(3,4-difluorophenyl)propan-2-yl)-2-(3-hydroxypyridin-2-yl) 5-(trifluoromethyl)pyrido[4,3-d]pyrimidin-4(3H)-one] |
| 0.39 µM | O=c1c2c(C(F)(F)F)nccc2nc(-c2ncccc2O)n1CCc1ccccc1 [Example 3, 2-(3-Hydroxy-pyridin-2-yl)-3-phenethyl-5-trifluoromethyl-3H-pyrido[4,3-d]pyrimidin-4-one] |
| 2.26 µM | CN(C)c1ccc(-c2nccc3nc(-c4ccccc4O)n(CCc4ccccc4)c(=O)c23)cn1 [Example 27, 5-(6-Dimethylamino-pyridin-3-yl)-2-(2-hydroxy-phenyl)-3-phenethyl-3H-pyrido[4,3-d]pyrimidin-4-one] |
| > 1 µM | O=c1c2c(C(F)(F)F)nccc2nc(-c2ncccc2O)n1CCC1CCOCC1 [Example 68, 2-(3-hydroxypyridin-2-yl)-3-(2-(tetrahydro-2H-pyran-4-yl)ethyl)-5-(trifluoromethyl)pyrido[4,3-d]pyrimidin-4(3H)-one] |
| 0.17 µM | O=c1c2c(C(F)(F)F)nccc2nc(-c2ncccc2O)n1CCc1ccc(F)cc1F [Example 14, 3-[2-(2,4-Difluoro-phenyl)-ethyl]-2-(3-hydroxy-pyridin-2-yl)-5-trifluoromethyl-3H-pyrido[4,3-d]pyrimidin-4-one] |
| 0.13 µM | O=c1c2c(C(F)(F)F)nccc2nc(-c2ccccc2O)n1CCc1ccccc1F [Example 7] |
| 0.2 µM | C[C@H](Cc1ccccc1)n1c(-c2ncccc2NC(=O)C(F)(F)F)nc2ccnc(C(F)(F)F)c2c1=O [Example 73, (R)-2,2,2-trifluoro-N-(2-(4-oxo-3-(1-phenylpropan-2-yl)-5-(trifluoromethyl)-3,4-dihydropyrido[4,3-d]pyrimidin-2-VI)pyridin-3-VI)acetamide] |
| 7.79 µM | O=c1c2c(C(F)(F)F)nccc2nc(C2CCCC2)n1CCc1ccccc1 [Example 59, 2-cyclopentyl-3-phenethyl-5-(trifluoromethyl)pyrido[4,3-d]pyrimidin-4(3H)-one] |
| 3.01 µM | O=c1c2c(Cc3ccccc3)nccc2nc(-c2ccccc2O)n1CCc1ccccc1 [Example 25, 5-Benzyl-2-(2-hydroxy-phenyl)-3-phenethyl-3H-pyrido[4,3-d]pyrimidin-4-one] |
| 0.49 µM | O=c1c2c(-c3ccc(N4CCCC4)nc3)nccc2nc(-c2ccccc2O)n1CCc1ccccc1 [Example 29, 5-(6-pyrrolidine-5-pyridin-3-yl)-2-(2-hydroxy-phenyl)-3-phenethyl-3H-pyrido[4,3-d]pyrimidin-4-one] |
| 0.16 µM | C[C@@H](Cc1ccccc1)n1c(-c2ccccc2O)nc2ccnc(C(F)(F)F)c2c1=O [Example 4b, (S)-2-(2-Hydroxy-phenyl)-3-(1-methyl-2-phenyl-ethyl)-5-trifluoromethyl-3H-pyrido[4,3-d]pyrimidin-4-one] |
| 0.57 µM | CCCOc1nccc2nc(-c3ccccc3O)n(CCc3ccccc3)c(=O)c12 [Example 32, 2-(2-Hydroxy-phenyl)-3-phenethyl-5-propoxy-3H-pyrido[4,3-d]pyrimidin-4-one] |
| 61.9 µM | COc1cccc(CCn2c(-c3ncccc3O)nc3ccnc(C(F)(F)F)c3c2=O)c1F [Example 70, 3-(2-fluoro-3-methoxyphenethyl)-2-(3-hydroxypyridin-2-yl)-5-(trifluoromethyl)pyrido[4,3-d]pyrimidin-4(3H)-one] |
| 0.29 µM | O=c1c2c(C(F)(F)F)nccc2nc(-c2ncccc2O)n1CCC1CCCC1 [Example 46, 3-(2-cyclopentylethyl)-2-(3-hydroxypyridin-2-yl)-5-(trifluoromethyl)pyrido[4,3-d]pyrimidin-4(3H)-one] |
| 0.29 µM | O=c1c2c(C(F)(F)F)nccc2nc(-c2cccc(F)c2O)n1CCc1ccccc1F [Example 9, 2-(3-Fluoro-2-hydroxy-phenyl)-3-[2-(2-fluoro-phenyl)-ethyl]-5-trifluoromethyl-3H-pyrido[4,3-d]pyrimidin-4-one] |
| 9.83 µM | Nc1scnc1-c1nc2ccnc(C(F)(F)F)c2c(=O)n1CCc1ccccc1 [Example 78, 2-(5-aminothiazol-4-yl)-3-phenethyl-5-(trifluoromethyl)pyrido[4,3-d]pyrimidin-4(3H)-one] |
| 2.53 µM | O=c1c2c(C(F)(F)F)nccc2nc(-c2ncccc2C(F)(F)F)n1CCC1CCCCC1 [Example 82, 3-(2-cyclohexylethyl)-5-(trifluoromethyl)-2-(3-(trifluoromethyl)pyridin-2-yl)pyrido[4,3-d]pyrimidin-4(3H)-one] |
